Test results reported in paper PMC9151520 (Archives of Toxicology, 2022).
“And” between values parts separate entries of the source, which are not always exact repeats. Identical values can stand only once. Like-named read-outs stand apart in the source and are kept apart here.

Legend:
[1] = test system: p53 signaling (p53RE-bla HCT-116 cells); assay: cells; assay type: cell-based
[2] = test system: p53 signaling (p53RE-bla HCT-116 cells)
[3] = test system: p53 signaling (p53RE-bla HCT-116 cells); remark: listed apart in the source
[4] = Homo sapiens, HCT-116, read-out: p53 activation EC50, primary screening
[5] = Homo sapiens, HCT-116, read-out: p53 activation efficacy, primary screening
[6] = Homo sapiens, HCT-116, read-out: p53 activation EC50, cherry pick confirmation
[7] = Homo sapiens, HCT-116, read-out: p53 activation efficacy, cherry pick confirmation
[8] = Homo sapiens, HCT-116, read-out: EC50, p53 activation, primary screening
[9] = Homo sapiens, HCT-116, read-out: Efficacy, p53 activation, primary screening
[10] = Homo sapiens, HCT-116, read-out: EC50, p53 activation, cherry pick confirmation
[11] = Homo sapiens, HCT-116, read-out: Efficacy, p53 activation, cherry pick confirmation

Structure (SMILES) | Viability EC50, cherry pick confirmation (p53RE-bla HCT-116 cells) | Viability EC50, primary screening (p53RE-bla HCT-116 cells) | Viability efficacy, cherry pick confirmation (p53RE-bla HCT-116 cells) | Viability efficacy, primary screening (p53RE-bla HCT-116 cells) | EC50 [1, 4] [µM] | Emax [1, 5] [%] | p53 activation EC50, cherry pick confirmation [2] | p53 activation EC50, primary screening [2] | p53 activation efficacy, cherry pick confirmation [2] | p53 activation efficacy, primary screening [2] | p53 activation EC50, cherry pick confirmation [3] | p53 activation EC50, primary screening [3] | EC50, viability, cherry pick confirmation (p53RE-bla HCT-116 cells) | EC50, viability, primary screening (p53RE-bla HCT-116 cells) | Efficacy, viability, cherry pick confirmation (p53RE-bla HCT-116 cells) | Efficacy, viability, primary screening (p53RE-bla HCT-116 cells) | EC50, p53 activation, cherry pick confirmation [2] | Efficacy, p53 activation, cherry pick confirmation [2] | EC50, p53 activation, cherry pick confirmation [3] | Efficacy, p53 activation, cherry pick confirmation [3] | also measured
C=C(CC)C(=O)c1ccc(OCC(=O)O)c(Cl)c1Cl [Ethacrynic acid] | inactive | inactive | inactive | inactive | 8.57 | 27.2 | inactive | inactive | inactive | inactive | inactive | inactive |  |  |  |  |  |  |  |  | p53 activation EC50, cherry pick confirmation [1]: inactive; p53 activation efficacy, cherry pick confirmation [1]: inactive; p53 activation efficacy, cherry pick confirmation [3]: inactive; p53 activation efficacy, primary screening [3]: inactive
CC[n+]1c(-c2ccccc2)c2cc(N)ccc2c2ccc(N)cc21 [Ethidium bromide] | inactive | inactive | inactive | inactive | 4.43 | 182 | inactive | inactive | inactive | inactive | inactive | inactive |  |  |  |  |  |  |  |  | EC50 [1, 6]: 5.41 µM; Emax [1, 7]: 176%; p53 activation efficacy, cherry pick confirmation [3]: inactive; p53 activation efficacy, primary screening [3]: inactive
CN1CCC(Nc2ncc3ncnc(Nc4ccc(F)c(Cl)c4)c3n2)CC1.Cl.Cl [Falnidamol dihydrochloride] |  |  |  |  |  |  |  |  |  |  |  |  |  |  |  |  |  |  |  |  | Viability EC50, HLM (p53RE-bla HCT-116 cells): inactive; Viability EC50, No MS (p53RE-bla HCT-116 cells): inactive; Viability EC50, RLM (p53RE-bla HCT-116 cells): inactive; Viability Efficacy, HLM (p53RE-bla HCT-116 cells): inactive; Viability Efficacy, No MS (p53RE-bla HCT-116 cells): inactive; Viability Efficacy, RLM (p53RE-bla HCT-116 cells): inactive; EC50 ([1]; read-out: p53 activation EC50, No MS): 16.7 µM and 12.9 µM; p53 activation EC50, HLM [2]: inactive; EC50 ([2]; read-out: p53 activation EC50, HLM): 14.2 µM; EC50 ([3]; read-out: p53 activation EC50, RLM): 17.2 µM and 8.9 µM
COC(=O)Nc1nc2ccc(Sc3ccccc3)cc2[nH]1 [Fenbendazole] |  |  |  |  |  |  |  |  |  |  |  |  | inactive | inactive | inactive | inactive | inactive | inactive | inactive | inactive | EC50, p53 activation, cherry pick confirmation [1]: inactive; Efficacy, p53 activation, cherry pick confirmation [1]: inactive; EC50 [1, 8]: 0.35 µM; Emax [1, 9]: 71%; EC50, p53 activation, primary screening [2]: inactive; Efficacy, p53 activation, primary screening [2]: inactive; EC50, p53 activation, primary screening [3]: inactive; Efficacy, p53 activation, primary screening [3]: inactive
N#Cc1c[nH]cc1-c1cccc2c1OC(F)(F)O2 [Fludioxonil] | inactive | inactive | inactive | inactive | 15.6 | 65.1 | inactive | inactive | inactive | inactive | inactive | inactive |  |  |  |  |  |  |  |  | p53 activation EC50, cherry pick confirmation [1]: inactive; p53 activation efficacy, cherry pick confirmation [1]: inactive; p53 activation efficacy, cherry pick confirmation [3]: inactive; p53 activation efficacy, primary screening [3]: inactive
O=C(Nc1cccc(C(F)(F)F)c1)c1cc(Br)cc(Br)c1O [Fluorosalan] |  |  |  |  |  |  |  |  |  |  |  |  | inactive | inactive | inactive | inactive | inactive | inactive | inactive | inactive | EC50 [1, 10]: 27.3 µM; EC50 [1, 8]: 17.6 µM; Emax [1, 11]: 47.5%; Emax [1, 9]: 33.3%; EC50, p53 activation, primary screening [2]: inactive; Efficacy, p53 activation, primary screening [2]: inactive; EC50, p53 activation, primary screening [3]: inactive; Efficacy, p53 activation, primary screening [3]: inactive
CC[C@@]1(O)C(=O)OCc2c1cc1n(c2=O)Cc2c-1nc1ccccc1c2/C=N/OC(C)(C)C [Gimatecan] | inactive | inactive | inactive | inactive | 0.118 | 118 | inactive | inactive | inactive | inactive | inactive | inactive |  |  |  |  |  |  |  |  | EC50 [1, 6]: 0.345 µM; Emax [1, 7]: 257%; p53 activation efficacy, cherry pick confirmation [3]: inactive; p53 activation efficacy, primary screening [3]: inactive
COC1=CC(=O)C[C@@H](C)[C@]12Oc1c(Cl)c(OC)cc(OC)c1C2=O [Griseofulvin] |  |  |  |  |  |  |  |  |  |  |  |  | inactive | inactive | inactive | inactive | inactive | inactive | inactive | inactive | EC50, p53 activation, cherry pick confirmation [1]: inactive; Efficacy, p53 activation, cherry pick confirmation [1]: inactive; EC50 [1, 8]: 36.3 µM; Emax [1, 9]: 41.2%; EC50, p53 activation, primary screening [2]: inactive; Efficacy, p53 activation, primary screening [2]: inactive; EC50, p53 activation, primary screening [3]: inactive; Efficacy, p53 activation, primary screening [3]: inactive
CCN(CC)CCNc1ccc(CO)c2sc3ccccc3c(=O)c12 [Hycanthone] |  |  |  |  |  |  |  |  |  |  |  |  | inactive | inactive | inactive | inactive | inactive | inactive | inactive | inactive | EC50 [1, 10]: 18.4 µM; Emax [1, 11]: 500%
C=CCOC(Cn1ccnc1)c1ccc(Cl)cc1Cl (stereo not shown) [Imazalil] |  |  |  |  |  |  |  |  |  |  |  |  | inactive | inactive | inactive | inactive | inactive | inactive | inactive | inactive | EC50, p53 activation, cherry pick confirmation [1]: inactive; Efficacy, p53 activation, cherry pick confirmation [1]: inactive; EC50 [1, 8]: 49.6 µM; Emax [1, 9]: 41.7%; EC50, p53 activation, primary screening [2]: inactive; Efficacy, p53 activation, primary screening [2]: inactive; EC50, p53 activation, primary screening [3]: inactive; Efficacy, p53 activation, primary screening [3]: inactive
